In patent US20040002842A1, “Methods and systems for analyzing complex biological systems” (priority 2001, published 2004):
“Also recorded” adds a separate entry of the source.

Legend:
[1] = system: Arabidopsis thaliana plants; assay: SOA1 phenotypic analysis of herbicide-treated plants (incl. MIC/Tmic); type: in vivo; settings: for leafCurling, Dev. / leafTwisting, Dev. / leafWidth, Dev. / matureLeafAnthocyanins, Dev. / matureLeafChlorosis, Dev. / matureLeafNecrosis, Dev. / newLeafAnthocyanins, Dev. / newLeafChlorosis, Dev. / newLeafNecrosis, Dev. / pointedLeaves, Dev.: herbicide sprayed on 21-day plants, numeric value standardized to mock treated; for tMic, Dev.: score for time to full symptoms at minimum inhibitory concentration; for characteristic symptoms (morphological phenotype): herbicide-treated plants
Arabidopsis thaliana [2] = assay: MOA1 gene expression profiling (22,000 gene array); settings: 1 hr; for Regulated Genes Following Herbicide Treatment: Down / Regulated Genes Following Herbicide Treatment: Up: p < 0.5; for No. of Lethal Genes Altered: regulated genes compared to list of essential (lethal) genes
Arabidopsis thaliana [3] = assay: MOA1 biochemical (metabolite) profiling by LC-MS and GC-MS; settings: for stress related metabolites: within one hour after spraying
Magnaporthe grisea = type: cell-based
Arabidopsis plants = settings: nitrate addition to N-starved plants; cited from earlier work

Structure (SMILES) | leafCurling, Dev. [1] | leafTwisting, Dev. [1] | leafWidth, Dev. [1] | matureLeafAnthocyanins, Dev. [1] | matureLeafChlorosis, Dev. [1] | matureLeafNecrosis, Dev. [1] | newLeafAnthocyanins, Dev. [1] | newLeafChlorosis, Dev. [1] | newLeafNecrosis, Dev. [1] | pointedLeaves, Dev. [1] | tMic, Dev. [1] | characteristic symptoms (morphological phenotype) [1] | also measured
O=C(O)COc1ccc(Cl)cc1Cl [2,4-D] | 1 | 2 | −1 | 1 | 2 | 0 | 0 | 1 | 0 | 0 | 2 | – | Symptom Class ([1]; phenotype class of three-week-old treated plants (FIG. 12)): 5
O=C(O)c1cc(Oc2ccc(C(F)(F)F)cc2Cl)ccc1[N+](=O)[O-] [Acifluorfen] | – | – | – | – | – | – | – | – | – | – | – | Necrotic leaf flecks | –
Nc1nc[nH]n1 [Amitrole] | – | – | – | – | – | – | – | – | – | – | – | leaf bleaching and leaf enlargement | –
COC(=O)NS(=O)(=O)c1ccc(N)cc1 [Asulam] | – | – | – | – | – | – | – | – | – | – | – | – | Regulated Genes Following Herbicide Treatment: Down (Arabidopsis thaliana [2]): 7; Regulated Genes Following Herbicide Treatment: Up (Arabidopsis thaliana [2]): 80; No. of Lethal Genes Altered (Arabidopsis thaliana [2]): 5
CCNc1nc(Cl)nc(NC(C)C)n1 [Atrazine] | – | – | – | – | – | – | – | – | – | – | – | rapid and widespread leaf necrosis | –
CC(C)N1C(=O)c2ccccc2NS1(=O)=O [Bentazon] | – | – | – | – | – | – | – | – | – | – | – | rapid and widespread leaf necrosis | –
COc1nc(C)nc(NC(=O)NS(=O)(=O)c2ccccc2Cl)n1 [Chlorsulfuron] | – | – | – | – | – | – | – | – | – | – | – | anthocyanin accumulation in the older leaves accompanied by chlorosis of the newly emerging leaves | Regulated Genes Following Herbicide Treatment: Up (Arabidopsis thaliana [2]): 97; No. of Lethal Genes Altered (Arabidopsis thaliana [2]): 8
c1cc[n+]2c(c1)-c1cccc[n+]1CC2 [Diquat] | 2 | 0 | −2 | 0 | 1 | 4 | 0 | 1 | 4 | 1 | 2 | rapid and widespread leaf necrosis | –
CN(C)C(=O)Nc1ccc(Cl)c(Cl)c1 [Diuron] | 1 | 0 | −2 | 0 | 2 | 4 | 0 | 2 | 4 | 1 | 1 | rapid and widespread leaf necrosis | –
CP(=O)(O)CCC(N)C(=O)O (centres unmarked) [Glufosinate] | 2 | 1 | −2 | 0 | 3 | 0 | 0 | 3 | 0 | 1 | 1 | Chlorosis and leaf curling | stress related metabolites (Arabidopsis thaliana [3]): Only a few, if any; Nitrogen source utilization by M. grisea (Magnaporthe grisea; in the presence of glufosinate): only able to utilize glutamine and glutamate as nitrogen sources; Regulated Genes Following Herbicide Treatment: Down (Arabidopsis thaliana [2]): 54; Regulated Genes Following Herbicide Treatment: Up (Arabidopsis thaliana [2]): 296; No. of Lethal Genes Altered (Arabidopsis thaliana [2]): 10
O=C(O)CNCP(=O)(O)O [Glyphosate] | 0 | 0 | 0 | 3 | 1 | 3 | 1 | 2 | 0 | 1 | 2 | anthocyanin accumulation in the older leaves accompanied by chlorosis of the newly emerging leaves | tyrosine level relative to the control (Arabidopsis thaliana [3]; after one hour): decreased; Growth of M. grisea, Tiers 3 and 4 media (Magnaporthe grisea): nearly identical as compared to Unknown 4; also recorded: inhibited growth of M. grisea when nitrate, nitrite, or glutamate was provided as the sole nitrogen source; Growth inhibition of M. grisea (Magnaporthe grisea; glyphosate at 1.0 mg/ml): remediated by inclusion of aromatic amino acids to the media
CC(C)C1(C)N=C(c2ncccc2C(=O)O)NC1=O (centres unmarked) [Imazapyr] | – | – | – | – | – | – | – | – | – | – | – | anthocyanin accumulation in the older leaves accompanied by chlorosis of the newly emerging leaves | stress related metabolites (Arabidopsis thaliana [3]): Only a few, if any
CCc1cnc(C2=NC(C)(C(C)C)C(=O)N2)c(C(=O)O)c1 (centres unmarked) [Imazethapyr] | – | – | – | – | – | – | – | – | – | – | – | anthocyanin accumulation in the older leaves accompanied by chlorosis of the newly emerging leaves | –
CS(=O)(=O)c1cc(C(F)(F)F)ccc1C(=O)c1cnoc1C1CC1 [Isoxaflutole] | – | – | – | – | – | – | – | – | – | – | – | – | Alpha-tocopherol level relative to the control (Arabidopsis thaliana [3]; early time points): not significantly changed; tyrosine and phenylalanine level relative to the control (Arabidopsis thaliana [3]; metabolite data, early time points (1 hr)): up-regulated; also recorded: began to accumulate relative to the control after one hour; Growth of M. grisea in minimal plus tyrosine and minimal media (Magnaporthe grisea; concentrations insufficient to inhibit growth): inhibited in minimal plus tyrosine media, while growth in minimal media was unaffected; alterations in the expression of genes of the homogentisate biosynthetic pathway (Arabidopsis thaliana [2]): not observed; Regulated Genes Following Herbicide Treatment: Down (Arabidopsis thaliana [2]): 370; No. of Lethal Genes Altered (Arabidopsis thaliana [2]): 15
CSc1nnc(C(C)(C)C)c(=O)n1N [Metribuzin] | – | – | – | – | – | – | – | – | – | – | – | rapid and widespread leaf necrosis | –
O=C(O)c1ccccc1C(=O)Nc1cccc2ccccc12 [Naptalam] | – | – | – | – | – | – | – | – | – | – | – | – | Regulated Genes Following Herbicide Treatment: Down (Arabidopsis thaliana [2]): 47; Regulated Genes Following Herbicide Treatment: Up (Arabidopsis thaliana [2]): 50; No. of Lethal Genes Altered (Arabidopsis thaliana [2]): 3
O=[N+]([O-])O [Nitrate, nitrate] | – | – | – | – | – | – | – | – | – | – | – | – | Nitrate Regulation of Glutamate synthetase gene (Arabidopsis plants): ↑; Nitrate Regulation of Glutamine synthetase (2) genes (Arabidopsis plants): ↑; Nitrate Regulation of MADs Box (2) genes (Arabidopsis plants): ↓; Nitrate Regulation of MYB transcription factor gene (Arabidopsis plants): ↑; Nitrate Regulation of Malate Dehydrogenase gene (Arabidopsis plants): ↑; Nitrate Regulation of Nitrate transporter gene (Arabidopsis plants): ↑; Nitrate Regulation of Phosphate transporter gene (Arabidopsis plants): ↑; Nitrate Regulation of Transaldolase gene (Arabidopsis plants): ↑; Nitrate Regulation of Transketolase gene (Arabidopsis plants): ↑
CNc1cnn(-c2cccc(C(F)(F)F)c2)c(=O)c1Cl [Norfluazon, Norflurazon] | – | – | – | – | – | – | – | – | – | – | – | – | stress related metabolites (Arabidopsis thaliana [3]): Only a few, if any
C[n+]1ccc(-c2cc[n+](C)cc2)cc1 [Paraquat] | 2 | 0 | −1 | 0 | 1 | 4 | 0 | 1 | 4 | 1 | 2 | rapid and widespread leaf necrosis | –
